The values below come from patent publication US8778966B2, “Quinolinone derivatives as PARP and tank inhibitors” (Janssen Pharmaceutica, NV, priority 2007, dated 2014).

One experiment has as its system HCT116 cells. As to the kind of experiment: Mitotic arrest assay on HCT116 cells (phospho-histone H3 Ser10). The experiment is classed as cell-based, human. To be noted: Homo sapiens, HCT-116, HCT116 cells; lowest active dose; read-out: Mitotic arrest HCT116 LAD (converted). From the text:
Phosphorylation of histone H3 is tightly correlated with chromosome condensation during both mitosis and meiosis. The assay is a cellular immunosorbent assay wherein the sole antibody is labelled with a detectable conjugate. The phospho-histone H3 (ser10) antibody detects endogenous levels of histone H3 only when phosphorylated at serine 10. […] In parallel with antibody detection, the nuclei of the cells are stained with Hoechst 33342 for cell-counting. Cells are detected and analysed using the InCell Analyzer 1000 from GE Healthcare. Since both the antibody-detection as well as the Hoechst-staining are in the nucleus, the dual area object intensity algorithm is used for analysing the wells.
All compounds tested were dissolved in DMSO and further dilutions were made in culture medium. Final DMSO concentrations never exceeded 0.1% (v/v).
HCT116 cells (supplier: ATCC) (human colon carcinoma cell line) were cultivated in Mc Coy's 5 A medium (supplier: Gibco) supplemented with 10% foetal calf serum (FCS), 2 mM L-glutamine and gentamycin at 37° C. in a humidified incubator with 5% CO2.
HCT116 cells were seeded at 20.000 cells per well in a 96 well plate (black/clear bottom, poly-D-lysine coated, supplier Greiner), cultured overnight to adhere to the bottom of the plate and treated with compound for 6 hours at 37° C. in a humidified incubator. After incubation, the medium was removed and cells were fixed using 100 μl/well formaldehyde (Accustain®, Formaline solution 10% neutral buffered, contains 4% formaldehyde w/v, supplier: Sigma) was added. After incubation for 15 minutes at room temperature, the formaldehyde was removed and cells were incubated with methanol (−20° C.) for 15 minutes at room temperature. After incubation, cells were washed once with phosphate-buffered saline (PBS —CaCl2, —MgCl2, suppier: Gibco)/0.05% Tween 20. The anti-phospho-histone H3 (Ser10) Alexa Fluor 488 antibody (supplier: Cell signalling) is used for detection of the cells inmitosis. The antibody was diluted 1/50 in 5% bovine serum albumins (BSA) and 50 μl/well was used for incubation overnight at room temperature in the dark.
A 1/2000 dilution of Hoechtst 33342 (10 mg/ml, supplier: Invitrogen) was made and 100 μl/well was added for at least 30 minutes before acquiring images. The absorbance at dual wavelengths of 360/480 nm was measured using the InCell Analyzer 1000 from GE Healthcare and the results were then analyzed.
For each experiment, controls (containing no drug) and a blank incubation (containing no cells or drugs) were run in parallel. Analysis was done in triplicate. Low cell count wells were invalidated. The blank value was subtracted from all control and sample values and divided by the standard deviation of the measurements. The compounds were considered active when the obtained value (sigma) was >5. Herein the effects of test compounds are expressed as the lowest dose giving a sigma value of >5 (LAD) (see table F-2).

The test system of the next experiment is PC-3 cells. As to the kind of experiment: Antiproliferative activity, Alamar Blue assay, PC-3 cells. To be noted: Homo sapiens, PC-3, PC3 cells; read-out: PC3 antiproliferative activity pIC50 (converted). The experiment is classed as cell-based, human. The essentials:
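Resazurin-based fluorescence (540 nm ex/590 nm em) measured after 4-day compound treatment plus 24 hrs dye incubation at 37° C. Cells plated at 4.5×10^3 cells/ml, adhered 24 hr first. pIC50 from probit-derived IC50 on % viable cells versus untreated, triplicate wells.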
(In general: Alamar Blue is a resazurin reagent that responds to reducing activity.)

For the molecule `CCc1cc2ccc(C(C)(C#N)Cc3cccc(Cl)c3Cl)cc2[nH]c1=O` (centres unmarked) [Compound 121], the minimal effective concentration in the experiment with HCT116 cells is 0.316 µM. Besides, in the experiment on PC-3 cells, the IC50 was 631 nM.

As to `CCc1cc2ccc(C(C)(C#N)Cc3ccc4ccccc4c3)cc2[nH]c1=O` (centres unmarked) [Compound 122], in the experiment on HCT116 cells, the minimal effective concentration was 0.316 µM. Also, the IC50 with PC-3 cells was 398 nM.

On to `CCc1cc2ccc(C(C)(C#N)Cc3ccc4c(c3)nnn4C)cc2[nH]c1=O` (centres unmarked) [Compound 123], for which the minimal effective concentration in the experiment on HCT116 cells was 3.16 µM. Besides, the IC50 with PC-3 cells is more than 10000 nM.

As for `CCc1cc2ccc(C(C)(C#N)Cc3ccc4c(c3)OCCO4)cc2[nH]c1=O` (centres unmarked) [Compound 124], the minimal effective concentration in the experiment on HCT116 cells was 0.316 µM. The IC50 in the experiment on PC-3 cells was 2000 nM.

Turning to `CCc1cc2ccc(C(C)(C#N)Cc3cc(C)cc(C)c3)cc2[nH]c1=O` (centres unmarked) [Compound 125], the minimal effective concentration in the experiment on HCT116 cells is 0.1 µM. Besides, in the experiment with PC-3 cells, the IC50 is 251 nM.

Take `CCc1cc2ccc(C(C)(C#N)Cc3cc(F)cc(Cl)c3)cc2[nH]c1=O` (centres unmarked) [Compound 126]: the minimal effective concentration in the experiment with HCT116 cells is 0.1 µM. In the experiment with PC-3 cells, the IC50 was 200 nM.

For the molecule `CCc1cc2ccc(C(C)(C#N)Cc3cc(F)cc(C(F)(F)F)c3)cc2[nH]c1=O` (centres unmarked) [Compound 127], the minimal effective concentration in the experiment on HCT116 cells is 0.316 µM. In addition, the IC50 with PC-3 cells was 1000 nM.

As to `CCc1cc2ccc(C(C)(C#N)Cc3cc(F)cc(F)c3)cc2[nH]c1=O` (centres unmarked) [Compound 128], in the experiment on HCT116 cells, the minimal effective concentration was 0.1 µM. In the experiment on PC-3 cells, the IC50 was 200 nM.

With `CCc1cc2ccc(C(C)(C#N)Cc3cccc(S(C)(=O)=O)c3)cc2[nH]c1=O` (centres unmarked) [Compound 129], the minimal effective concentration in the experiment on HCT116 cells is 0.316 µM. Further, the IC50 with PC-3 cells is 5010 nM.

In the case of `CCc1cc2ccc(C(C)(C#N)Cc3cccc(Cl)c3F)cc2[nH]c1=O` (centres unmarked) [Compound 130], the minimal effective concentration in the experiment on HCT116 cells is 0.1 µM. Besides, the IC50 in the experiment with PC-3 cells is 398 nM.

For the molecule `CCc1cc2ccc(C(C)(C#N)Cc3cc(C(F)(F)F)cc(C(F)(F)F)c3)cc2[nH]c1=O` (centres unmarked) [Compound 131], in the experiment with HCT116 cells, the minimal effective concentration was 3.16 µM. Moreover, the IC50 in the experiment on PC-3 cells was more than 10000 nM.

As for `CCc1cc2ccc(C(C)(C#N)Cc3cccc(C)c3F)cc2[nH]c1=O` (centres unmarked) [Compound 132], the minimal effective concentration in the experiment with HCT116 cells is 0.1 µM. Also, in the experiment with PC-3 cells, the IC50 is 631 nM.

Take `CCc1cc2ccc(C(C)(C#N)Cc3cc(Br)cc(Br)c3)cc2[nH]c1=O` (centres unmarked) [Compound 133]: in the experiment on HCT116 cells, the minimal effective concentration is 0.1 µM. Also, the IC50 in the experiment with PC-3 cells is 501 nM.

As for `CCc1cc2ccc(C(C)(C#N)Cc3cccc(C(F)(F)F)c3F)cc2[nH]c1=O` (centres unmarked) [Compound 134], the minimal effective concentration in the experiment on HCT116 cells was 0.316 µM. Besides, the IC50 in the experiment with PC-3 cells was 1000 nM.

Take `CCc1cc2ccc(C(C)(C#N)Cc3c(Cl)cccc3Cl)cc2[nH]c1=O` (centres unmarked) [Compound 135]: the minimal effective concentration in the experiment with HCT116 cells is 0.2 µM. Further, the IC50 with PC-3 cells is 1000 nM.

For the molecule `CCc1cc2ccc(C(C)(C#N)Cc3c(Cl)cccc3Br)cc2[nH]c1=O` (centres unmarked) [Compound 136], the minimal effective concentration in the experiment with HCT116 cells was 0.316 µM. Also, the IC50 in the experiment on PC-3 cells is 1000 nM.

`CCc1cc2ccc(C(C)(C#N)Cc3ccc(F)cc3F)cc2[nH]c1=O` (centres unmarked) [Compound 137]: in the experiment on HCT116 cells, the minimal effective concentration was 0.316 µM. The IC50 with PC-3 cells is 794 nM.

In the case of `CCc1cc2ccc(C(C)(C#N)Cc3c(F)cccc3F)cc2[nH]c1=O` (centres unmarked) [Compound 138], the minimal effective concentration in the experiment with HCT116 cells is 0.2 µM. Further, in the experiment on PC-3 cells, the IC50 is 1000 nM.

Take `CCc1cc2ccc(C(C)(C#N)Cc3ccc(F)cc3Br)cc2[nH]c1=O` (centres unmarked) [Compound 139]: in the experiment on HCT116 cells, the minimal effective concentration is 0.1 µM. In the experiment on PC-3 cells, the IC50 is 794 nM.

For the molecule `CCc1cc2ccc(C(C)(C#N)Cc3cccc(Cl)c3)cc2[nH]c1=O` (centres unmarked) [Compound 140], in the experiment with HCT116 cells, the minimal effective concentration was 0.316 µM. In addition, in the experiment with PC-3 cells, the IC50 was 631 nM.

`CCc1cc2ccc(C(C)(C#N)Cc3cc(Cl)cc(Cl)c3)cc2[nH]c1=O` (centres unmarked) [Compound 141]: the minimal effective concentration with HCT116 cells is 0.1 µM. Also, the IC50 in the experiment on PC-3 cells was 79.4 nM.

As for `CCOc1ccccc1OCCC(C)(C#N)c1ccc2cc(CC)c(=O)[nH]c2c1` (centres unmarked) [Compound 142], the minimal effective concentration in the experiment on HCT116 cells was 0.316 µM. In addition, in the experiment with PC-3 cells, the IC50 is 316 nM.

As for `CCc1cc2ccc(C(C)(C#N)CCOc3cccc(C)c3)cc2[nH]c1=O` (centres unmarked) [Compound 143], the minimal effective concentration in the experiment with HCT116 cells is 0.316 µM. For the same molecule, the IC50 with PC-3 cells is 794 nM.

As for `CCc1cc2ccc(C(C)(C#N)CCOc3ccc(F)cc3)cc2[nH]c1=O` (centres unmarked) [Compound 144], the minimal effective concentration in the experiment on HCT116 cells was 0.316 µM. Also, the IC50 in the experiment on PC-3 cells is 631 nM.

Turning to `CCc1cc2ccc(C(C)(C#N)CCOc3ccccc3)cc2[nH]c1=O` (centres unmarked) [Compound 145], in the experiment on HCT116 cells, the minimal effective concentration was 0.316 µM. Besides, in the experiment with PC-3 cells, the IC50 was 501 nM.

Consider `CCc1cc2ccc(C(C)(C#N)CCOc3ccc(Cl)cc3)cc2[nH]c1=O` (centres unmarked) [Compound 146], for which, in the experiment on HCT116 cells, the minimal effective concentration was 0.316 µM. In addition, the IC50 in the experiment on PC-3 cells was 501 nM.

`CCc1cc2ccc(C(C)(C#N)CCOc3ccc(OC)cc3)cc2[nH]c1=O` (centres unmarked) [Compound 147]: the minimal effective concentration with HCT116 cells is 0.316 µM. For the same molecule, the IC50 in the experiment on PC-3 cells was 794 nM.

Regarding `CCc1cc2ccc(C(C)(C#N)CCOc3ccccc3C)cc2[nH]c1=O` (centres unmarked) [Compound 148], the minimal effective concentration in the experiment on HCT116 cells is 0.316 µM. For the same molecule, the IC50 in the experiment on PC-3 cells was 794 nM.

With `CCc1cc2ccc(C(C)(C#N)CCOc3ccc(C)cc3)cc2[nH]c1=O` (centres unmarked) [Compound 149], the minimal effective concentration with HCT116 cells is 0.316 µM. Besides, the IC50 with PC-3 cells was 1000 nM.

Consider `CCc1cc2ccc(C(C)(C#N)CCOc3cccc(Cl)c3)cc2[nH]c1=O` (centres unmarked) [Compound 151], for which the minimal effective concentration in the experiment on HCT116 cells was 0.316 µM. Besides, the IC50 with PC-3 cells is 2000 nM.

As to `CCc1cc2ccc(C(C)(C#N)CCOc3ccccc3Cl)cc2[nH]c1=O` (centres unmarked) [Compound 152], the minimal effective concentration in the experiment with HCT116 cells is 0.316 µM. Also, the IC50 with PC-3 cells was 1580 nM.

Take `CCc1cc2ccc(C(C)(C#N)CCOc3ccccc3Br)cc2[nH]c1=O` (centres unmarked) [Compound 153]: the minimal effective concentration in the experiment on HCT116 cells is 0.316 µM. Also, the IC50 in the experiment with PC-3 cells was 631 nM.

As for `CCc1cc2ccc(C(C)(C#N)CCOc3ccc(Cl)cc3Cl)cc2[nH]c1=O` (centres unmarked) [Compound 154], the minimal effective concentration with HCT116 cells is 0.316 µM. In the experiment on PC-3 cells, the IC50 is 398 nM.

In the case of `CCc1cc2ccc(C(C)(C#N)CCOc3ccc(SC)cc3)cc2[nH]c1=O` (centres unmarked) [Compound 155], in the experiment with HCT116 cells, the minimal effective concentration was 1 µM. In addition, the IC50 in the experiment with PC-3 cells was 1580 nM.

Consider `CCc1cc2ccc(C(C)(C#N)CC3CN(C)c4ccccc4O3)cc2[nH]c1=O` (centres unmarked) [Compound 156], for which, in the experiment with HCT116 cells, the minimal effective concentration was 0.316 µM. For the same molecule, the IC50 in the experiment with PC-3 cells is 2510 nM.

Consider `CCc1cc2ccc(C(C)(C#N)CCOc3ccc4ccccc4c3)cc2[nH]c1=O` (centres unmarked) [Compound 157], for which the minimal effective concentration in the experiment on HCT116 cells was 0.316 µM. For the same molecule, the IC50 in the experiment on PC-3 cells is 1000 nM.

As for `CCc1cc2ccc(C(C)(C#N)CCOc3cccc4ccccc34)cc2[nH]c1=O` (centres unmarked) [Compound 158], in the experiment with HCT116 cells, the minimal effective concentration was 0.1 µM. Moreover, in the experiment on PC-3 cells, the IC50 was 794 nM.

In the case of `CCc1cc2ccc(C(C)(C#N)CCOc3ccccc3C(C)=O)cc2[nH]c1=O` (centres unmarked) [Compound 159], the minimal effective concentration with HCT116 cells is 3.16 µM. In addition, the IC50 in the experiment with PC-3 cells was more than 10000 nM.

In the case of `CCc1cc2ccc(C(C)(C#N)CCOc3ccc(Br)cc3)cc2[nH]c1=O` (centres unmarked) [Compound 160], the minimal effective concentration with HCT116 cells is 0.316 µM. Also, the IC50 in the experiment on PC-3 cells was 1260 nM.

For the molecule `CCc1cc2ccc(C(C)(C#N)CCOc3ccc(C#N)cc3)cc2[nH]c1=O` (centres unmarked) [Compound 161], the minimal effective concentration in the experiment on HCT116 cells is 0.1 µM. In addition, the IC50 in the experiment with PC-3 cells was 501 nM.
